In PubChem BioAssay AID652199 (Broad Institute, 2013) one finds AC50 data, which are given here for twelve compounds.

Activity calls are given as the source filed them.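 The calls were made as follows: active = half-maximal inhibitory concentration AC50 at or below 30 µM; inactive = the rest, including compounds with no fitted curve.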

For the assay, the target named is Protein disulfide-isomerase (Homo sapiens) (UniProt P07237). Nature of the assay: PDI inhibitors, insulin aggregation turbidity, confirmation, biochemical, dry powder samples, set 3 (AID 652199). The note with it: absorbance 650 nm, 90 min.
Sequence of Protein disulfide-isomerase (Homo sapiens) (P07237 whole entry, looked up): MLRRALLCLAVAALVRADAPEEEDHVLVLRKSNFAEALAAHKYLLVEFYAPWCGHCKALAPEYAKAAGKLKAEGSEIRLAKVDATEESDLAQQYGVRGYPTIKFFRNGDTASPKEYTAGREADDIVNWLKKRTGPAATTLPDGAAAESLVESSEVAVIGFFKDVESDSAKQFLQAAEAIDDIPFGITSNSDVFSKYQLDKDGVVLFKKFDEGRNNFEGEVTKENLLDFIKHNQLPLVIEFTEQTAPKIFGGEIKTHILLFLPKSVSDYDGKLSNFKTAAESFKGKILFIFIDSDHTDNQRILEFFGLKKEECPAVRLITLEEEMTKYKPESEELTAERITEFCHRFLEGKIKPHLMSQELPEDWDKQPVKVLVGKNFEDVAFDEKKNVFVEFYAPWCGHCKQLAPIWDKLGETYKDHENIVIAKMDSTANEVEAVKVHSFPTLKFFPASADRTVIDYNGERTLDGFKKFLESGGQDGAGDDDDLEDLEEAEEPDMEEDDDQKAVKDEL
For the compound `CCOC(=O)c1c(CN2CCN(CCO)CC2)n(-c2ccccc2)c2cc(Br)c(O)cc12`, the AC50 was 3 µM.

For `CCOC(=O)C1(CCOc2ccccc2)CCN(Cc2ccc(OC)c(Cl)c2)CC1`, the AC50 was > 30 µM (inactive).

In the case of `CC(C)OC(=O)C1(CCOc2ccccc2)CCN(Cc2ccc(O)c(Cl)c2)CC1`, the AC50 was 0.7 µM.

As to `C/C1=C\C[C@H](OC(=O)c2ccc(O)cc2)/C(C)=C/[C@@H](O)C(C)(C)CCC1`, the AC50 was 5 µM.

In the case of `CCOC(=O)C1(CCOc2ccccc2)CCN(C(=O)c2ccc(O)c(Cl)c2)CC1`, the concentration at half-maximal activity (AC50) was 1.5 µM.

With `CC(C)(C)OC(=O)C1(CCOc2ccccc2)CCN(Cc2ccc(O)c(Cl)c2)CC1`, the AC50 is 0.7 µM.

As to `O=C(NC1CCCC1)C1(CCOc2ccccc2)CCN(Cc2ccc(O)c(Cl)c2)CC1`, the AC50 was 3 µM.

On to `CCOC(=O)C1(CCOc2ccccc2)CCN(Cc2ccc(O)c(Cl)c2)CC1`, for which the AC50 is 0.4 µM.

With `CCOC(=O)C1(CCOc2ccccc2)CCN(Cc2ccc(O)cc2)CC1`, the AC50 was 20 µM.

Regarding `O=C(Nc1ccccc1)C1(CCOc2ccccc2)CCN(Cc2ccc(O)c(Cl)c2)CC1`, the AC50 is 30 µM.

On to `CCN(C)C(=O)C1(CCOc2ccccc2)CCN(Cc2ccc(O)c(Cl)c2)CC1`, for which the AC50 is 3 µM.

Turning to `C/C1=C\[C@@H](O)C(C)(C)CCCC2(C)OC2C[C@@H]1OC(=O)c1ccc(O)cc1` (some centres not stated), the half-maximal activity concentration (AC50) is 1.5 µM.

Usually AC50 stands for the concentration giving half of the maximal activity seen.
